Results from publication PMC9428149, “Tackling recalcitrant Pseudomonas aeruginosa infections in critical illness via anti-virulence monotherapy” (Nature Communications, 2022).
Converted amounts (≈) assume the structure as drawn. Read-outs that look alike come from different tables or passages of the source.

Key:
[1] = tested on: pqsA promoter (PA14 PpqsA-GFPASV); assay: pqsA-GFP reporter expression; assay type: cell-based, Pseudomonas aeruginosa; details: Pseudomonas aeruginosa; for activity at 50 µM: PA14, read-out: % Production pqsA-GFP; for IC50: PA14, read-out: IC50 pqsA-GFP expression, PA14, 13 concentrations
PA14 AT/P cells = assay: AT/P cells formation assay in PA14; assay type: cell-based, Pseudomonas aeruginosa; details: for inhibition at 10 µM: Pseudomonas aeruginosa, PA14, 24 h, read-out: inhibition of AT/P cells formation
[2] = tested on: mvfR mutant constitutively expressing the pqsABCDE operon; assay type: cell-based; details: Pseudomonas aeruginosa, control about 100, single replicates (Figure 4a)
MvfR protein (MvfRC87) = target: T1, MvfR protein (MvfRC87) (Pseudomonas aeruginosa, UniProt Q9I4X0); assay type: binding; details: SPR
T1 construct: The MvfRC87 protein purified as in Xiao et. al., 2006; made in house
Outline: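 MvfRC87 amine-coupled to a CM7 chip (3000–5000 RU) and binding measured by SPR. Double-reference-corrected responses 5 s before end of association plotted against concentration, for inhibitor alone and with native ligand PQS, compared with responses calculated for different binding sites.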

[3] = Solubility in iPBS pH 7.4 by HPLC; assay type: physicochemical; details: isotonic phosphate buffer (iPBS), aqueous with cosolvent or surfactant or cyclodextrin, kinetic from dmso stock; iPBS pH 7.4, HPLC; read-out: Solubility (M) in PBS
Outline: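 Compounds from 10 mM DMSO stock shaken 4 h at room temperature in iPBS pH 7.4 (10 mM PBS, 2.7 mM KCl, 140 mM NaCl, 0.05% Tween), then filtered. Concentration measured by HPLC-UV against a known standard solution; solubility given as ratio of compound in test solution to standard.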

[4] = tested on: pyocyanin production in PA14; assay: Pyocyanin production assay; details: Pseudomonas aeruginosa; for activity at 50 µM: PA14, 18 h, read-out: % Production Pyocyanin; for IC50: PA14, read-out: IC50 pyocyanin production
[5] = tested on: 16 MDR P. aeruginosa clinical isolates; assay: Pyocyanin production in MDR clinical isolates; details: Pseudomonas aeruginosa, 18 h, Control about 100, replicates
Procedure: The over-day culture was grown to OD600nm 1.5., diluted again at 1:10,000 in 5 mL LB and incubated with 10 μM of the test compound or the vehicle control for 18 hours at 37 °C and 200 rpm in an incubator shaker. After 18 h, 1 mL of culture was centrifuged for 2 min at 20.000 x g. The supernatant was transferred to a new tube, 200 μL of this were loaded in a flat-bottom 96-well plate, and the pyocyanin levels were quantified by measuring at OD690nm in the infinite F200 plate reader using the Magellan software (Tecan, Switzerland). The same procedure was also followed for the pyocyanin production assessment for all the P. aeruginosa clinical isolates assessed in this study. The percent of pyocyanin was calculated compared to the PA14 culture grown in the absence of compounds.
Pyocyanin production was measured in 16 P.
aeruginosa clinical isolates 18hr post-growth in the presence or absence of 10 µM of each NAM
compound. The percent of pyocyanin production was calculated by comparing the same strain grown
in the presence of the vehicle control. b.

ΔmvfR biofilm = assay: Biofilm formation of ΔmvfR mutant (off-target); details: Pseudomonas aeruginosa, PA14, 24 h, read-out: Biofilm formation, ΔmvfR + compound; PA14 about 100; single replicates (Figure 4c)
Procedure: Biofilm was grown in the 96-well microtiter plate at 37 °C for 24 h containing M63 minimal media in the presence of 10 µM of the compounds or vehicle. The biofilm grown with the vehicle was considered as a control. The percentage value was calculated in comparison to the PA14 control. a–c Data represent at least n = 3, each dot on the graph represents one biological replicate. The number of biological replicates for each compound and strain is depicted in the graph. The error bars denote ±SEM.
The overnight grown starter culture was diluted 1:1000 in 5 mL LB media in a glass tube and was incubated at 37 °C and 200 rpm in an incubator shaker until the culture reached an OD600nm 3.0. The culture was then diluted at 1:100 in M63 minimal media supplemented with 0.2% glucose, 0.5% Casamino Acids, and 1 mM MgSO4. Initiation of the Biofilm formation was performed in the 96 well plates; 200 µL of diluted culture was added in the wells with (10 µM) or without compounds. The cultures were allowed to grow at 37 °C in static conditions for 24 hours. Thereafter, planktonic culture was removed from the wells, and wells were washed three times with distilled water (DW). Biofilm was stained with 0.1% crystal violet and incubated for 15 min at room temperature (RT). Access dye was removed from the wells and washed off three times with DW, and 200 µL ethanol: acetone (80:20) was added to the wells. The plate was incubated for 30 min at RT, and the OD was measured by spectrophotometry at 570 nm in the infinite F200 plate reader using the Magellan software (Tecan, Switzerland). Percent biofilm formation was calculated in comparison to PA14 culture that was grown in the absence of compounds.

[6] = tested on: PA14 isogenic mutant ΔmvfR AT/P cells; assay: AT/P cell formation in ΔmvfR mutant (off-target); details: Pseudomonas aeruginosa, PA14, 24 h, read-out: AT/P cell formation, ΔmvfR + compound; PA14 about 100; single replicates (Figure 4b)
Procedure: Cells were grown in the presence of 10 μg mL^−1 meropenem, with or without 10 µM of the compounds for 24 h. Values were normalized to cells grown for 4 h in the absence of antibiotics and compounds. The ∆mvfR cells grown with antibiotics and vehicles were considered control, and the percentage values were calculated compared to control. c Biofilm formation of mutant ∆mvfR cells with or without compound. […] The number of biological replicates for each compound and strain is depicted in the graph. The error bars denote ±SEM.
The AT/P cell formation assay was performed according to the method previously described in Starkey et al., 2014 (persister cell assay). The over-day culture was incubated at 37 °C with shaking at 200 rpm until the culture OD600nm was 3.0. The culture was then diluted at 1:100 and grown in the same conditions for 4 h. After 4 h, 200 µL were collected, and serial dilutions were plated on LB agar plates for CFU quantification (as normalizers). The remainder of the culture was treated with meropenem to a final concentration of 100 × MIC (Minimum Inhibitory Concentration; 10 mg L^−1) and compounds at a final concentration of 10 µM. After 24 h, culture aliquots were 10-fold serially diluted in LB broth and plated on LB agar for CFU quantification. The AT/P fraction was determined as the normalizers (pre-antibiotic) ratio divided by the AT/P fraction (24 h post-antibiotic)[22].

[7] = tested on: MvfR-regulated small molecules in PA14; assay: Production of HAQs, 2-AA, DHQ and AA in PA14 cultures (LC-MS); details: Pseudomonas aeruginosa
[8] = read-out: HQNO, ΔmvfR-pqsABCD strain
[9] = read-out: Pyocyanin production relative to Control, clinical isolate LGR-4325
[10] = read-out: Pyocyanin production relative to Control, clinical isolate LGR-4326
[11] = read-out: Pyocyanin production relative to Control, clinical isolate LGR-4327
[12] = read-out: Pyocyanin production relative to Control, clinical isolate LGR-4328
[13] = read-out: Pyocyanin production relative to Control, clinical isolate LGR-4330
[14] = read-out: Pyocyanin production relative to Control, clinical isolate LGR-4331 (first section, r117)
[15] = read-out: Pyocyanin production relative to Control, clinical isolate LGR-4331 (second section, r140)
[16] = read-out: Pyocyanin production relative to Control, clinical isolate LGR-4333
[17] = read-out: Pyocyanin production relative to Control, clinical isolate LGR-4343
[18] = read-out: Pyocyanin production relative to Control, clinical isolate LGR-4344
[19] = read-out: Pyocyanin production relative to Control, clinical isolate LGR-4348
[20] = read-out: Pyocyanin production relative to Control, clinical isolate LGR-4356
[21] = read-out: Pyocyanin production relative to Control, clinical isolate LGR-4362
[22] = read-out: Pyocyanin production relative to Control, clinical isolate LGR-4363
[23] = read-out: Pyocyanin production relative to Control, clinical isolate LGR-4364 (first section, r326)
[24] = read-out: Pyocyanin production relative to Control, clinical isolate LGR-4364 (second section, r349)
[25] = PA14, read-out: % Production 2-AA
[26] = PA14, read-out: % Production AA
[27] = PA14, read-out: % Production DHQ
[28] = PA14, read-out: % Production HHQ
[29] = PA14, read-out: % Production HQNO
[30] = PA14, read-out: % Production PQS
[31] = PA14, read-out: HHQ production inhibition
[32] = PA14, read-out: HQNO production inhibition
[33] = PA14, read-out: PQS production inhibition
[34] = PA14, read-out: inhibition of 2-AA production
[35] = PA14, read-out: inhibition of DHQ production

T1 sequence (Q9I4X0 87-332): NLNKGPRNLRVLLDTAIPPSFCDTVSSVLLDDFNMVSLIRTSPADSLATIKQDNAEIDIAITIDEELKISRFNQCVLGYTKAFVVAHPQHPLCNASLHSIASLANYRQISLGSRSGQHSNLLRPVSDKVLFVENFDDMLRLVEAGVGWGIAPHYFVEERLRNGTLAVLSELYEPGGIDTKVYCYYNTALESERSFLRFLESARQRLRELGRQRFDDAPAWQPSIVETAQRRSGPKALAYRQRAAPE

N#Cc1ccc(NC(=O)CC(=O)Nc2ccc(Cl)cc2)cc1 [D41]
activity at 50 µM [1]: 8% | IC50 [1]: 1090 nM | inhibition at 10 µM (PA14 AT/P cells): ≥ 76% | activity at 50 µM [2, 8]: 81.9% | Response Unit (RU) (MvfR protein (MvfRC87); Concentration 1.00E-05 M): 28.8 RU | Response Unit (RU) (MvfR protein (MvfRC87); Concentration 1.00E-06 M): 22.7 RU | Response Unit (RU) (MvfR protein (MvfRC87); Concentration 1.00E-07 M): 10.6 RU | Response Unit (RU) (MvfR protein (MvfRC87); Concentration 1.00E-08 M): 2.6 RU | Response Unit (RU) (MvfR protein (MvfRC87); Concentration 3.16E-06 M): 26.5 RU | Response Unit (RU) (MvfR protein (MvfRC87); Concentration 3.16E-07 M): 16.9 RU | Response Unit (RU) (MvfR protein (MvfRC87); Concentration 3.16E-08 M): 5.4 RU | solubility at 4 h [3]: 1.3e-05 M (≈ 4.08 µg/mL) | activity at 50 µM [4]: 6% | IC50 [4]: 1800 nM | activity at 10 µM [5, 9]: 15.5% | activity at 10 µM [5, 10]: 14.8% | activity at 10 µM [5, 11]: 34.4% | activity at 10 µM [5, 12]: 11.9% | activity at 10 µM [5, 13]: 13.4% | activity at 10 µM [5, 14]: 17.4% | activity at 10 µM [5, 15]: 10.7% | activity at 10 µM [5, 16]: 18.8% | activity at 10 µM [5, 17]: 17.4% | activity at 10 µM [5, 18]: 21.8% | activity at 10 µM [5, 19]: 17.7% | activity at 10 µM [5, 20]: 18.8% | activity at 10 µM [5, 21]: 35.7% | activity at 10 µM [5, 22]: 23.4% | activity at 10 µM [5, 23]: 19.1% | activity at 10 µM [5, 24]: 22% | activity at 10 µM (ΔmvfR biofilm): 25.4% | activity at 10 µM [6]: 43.4% | activity at 50 µM [7, 25]: 6% | activity at 50 µM [7, 26]: 739% | activity at 50 µM [7, 27]: 11% | activity at 50 µM [7, 28]: 2% | activity at 50 µM [7, 29]: 15% | activity at 50 µM [7, 30]: 9% | inhibition at 50 µM [7, 31]: 89 to 99% | inhibition at 50 µM [7, 32]: 40 to 92% | inhibition at 50 µM [7, 33]: 76 to 97% | inhibition at 50 µM [7, 34]: 82 to 95% | inhibition at 50 µM [7, 35]: 82 to 96%

N#Cc1ccc(NC(=O)CC(=O)Nc2ccc(C#N)cc2)cc1 [D43]
activity at 50 µM [1]: 8% | IC50 [1]: 970 nM | AT/P cells formation, percentage of control (single replicates) (PA14 AT/P cells; PA14, 10 μg mL^−1 meropenem, 10 µM compound, 24 h, control PA14 + vehicle): 39.10% | inhibition at 10 µM (PA14 AT/P cells): ≥ 51% | activity at 50 µM ([2]; read-out: DHQ, ΔmvfR-pqsABCD strain): 103% | activity at 50 µM [2, 8]: 91.3% | activity at 50 µM ([2]; read-out: PQS, ΔmvfR-pqsABCD strain): 99.4% | Response Unit (RU) (MvfR protein (MvfRC87); Concentration 1.00E-05 M): 29.2 RU | Response Unit (RU) (MvfR protein (MvfRC87); Concentration 1.00E-06 M): 22.5 RU | Response Unit (RU) (MvfR protein (MvfRC87); Concentration 1.00E-07 M): 9.9 RU | Response Unit (RU) (MvfR protein (MvfRC87); Concentration 1.00E-08 M): 2.7 RU | Response Unit (RU) (MvfR protein (MvfRC87); Concentration 3.16E-06 M): 26.7 RU | Response Unit (RU) (MvfR protein (MvfRC87); Concentration 3.16E-07 M): 16.5 RU | Response Unit (RU) (MvfR protein (MvfRC87); Concentration 3.16E-08 M): 5 RU | solubility at 4 h [3]: 1.1e-05 M (≈ 3.35 µg/mL) | activity at 50 µM [4]: 8% | IC50 [4]: 1380 nM | activity at 10 µM [5, 9]: 14.5% | activity at 10 µM [5, 10]: 9.84% | activity at 10 µM [5, 11]: 26.2% | activity at 10 µM [5, 12]: 9.98% | activity at 10 µM [5, 13]: 15% | activity at 10 µM [5, 14]: 16.3% | activity at 10 µM [5, 15]: 11.8% | activity at 10 µM [5, 16]: 15.2% | activity at 10 µM [5, 17]: 24.3% | activity at 10 µM [5, 18]: 25.8% | activity at 10 µM [5, 19]: 12.6% | activity at 10 µM [5, 20]: 20.8% | activity at 10 µM [5, 21]: 23.7% | activity at 10 µM [5, 22]: 13.4% | activity at 10 µM [5, 23]: 21.7% | activity at 10 µM [5, 24]: 19.3% | activity at 10 µM (ΔmvfR biofilm): 41.4% | activity at 10 µM [6]: 30.1% | activity at 50 µM [7, 25]: 19% | activity at 50 µM [7, 26]: 531% | activity at 50 µM [7, 27]: 34% | activity at 50 µM [7, 28]: 22% | activity at 50 µM [7, 29]: 39% | activity at 50 µM [7, 30]: 24% | inhibition at 50 µM [7, 31]: 89 to 99% | inhibition at 50 µM [7, 32]: 40 to 92% | inhibition at 50 µM [7, 33]: 76 to 97% | inhibition at 50 µM [7, 34]: 82 to 95% | inhibition at 50 µM [7, 35]: 82 to 96%
